What all share (experiment): microbe, parasite or virus in culture
Test [1] deals with Pseudotyped HCV GT1a particles (HCVpp). The format is cell-based, HCV GT1a H77 strain. The note with it: Hepatitis C virus, 72 h, read-out: HCVpp GT-1a (EC50, μM).
The test system of test [2] is Pseudotyped HCV GT1b particles (HCVpp). The format is cell-based, HCV GT1b Con1 strain. The note with it: Hepatitis C virus, 72 h, read-out: HCVpp GT-1b (EC50, μM).
Test [3] concerns pseudotyped VSV G particles (VSVpp). The format is cell-based. Conditions: Vesicular stomatitis virus, 72 h, read-out: VSVpp (EC50, μM).

Some results are limits rather than exact numbers.

For `Nc1nc(Nc2cc(Cl)c(C3CC3)c(Cl)c2)n[nH]1` [Compound I-39], the EC50 (commonly the midpoint of the concentration-response curve) in test [1] came to 0.015 µM; in test [2] it was 0.574 µM; in test [3] it was 37.9 µM.

`CS(=O)(=O)c1cccc(Nc2n[nH]c(N)n2)c1` [Compound I-21, N*3*-(3-Methanesulfonyl-phenyl)-1H-[1,2,4]triazole-3,5-diamine]: the EC50 in test [1] stood at 12.6 µM; in test [2], 41.4 µM; in test [3] it was 100 µM.

`Nc1nc(Nc2ccc(C(F)(F)F)c(Cl)c2)n[nH]1` [Compound I-10, N*3*-(3-Chloro-4-trifluoromethyl-phenyl)-1H-[1,2,4]triazole-3,5-diamine]: the EC50 was determined as 0.368 µM in test [1], 5.14 µM in test [2] and 100 µM in test [3].

Consider `Nc1nc(Nc2cccc(Cl)c2)n[nH]1` [Compound I-36, N*3*-(3-Chloro-phenyl)-1H-[1,2,4]triazole-3,5-diamine], for which the EC50 in test [1] worked out at 1.84 µM; in test [2], 28.6 µM; in test [3], 100 µM.

As for `Nc1nc(Nc2cccc(Br)c2)n[nH]1` [Compound I-15, N*3*-(3-Bromo-phenyl)-1H-[1,2,4]triazole-3,5-diamine], the EC50 in test [1] is 1.41 µM; in test [2], 18.1 µM; in test [3] it was 100 µM.

As for `CS(=O)(=O)c1ccc(Nc2n[nH]c(N)n2)cc1Cl` [Compound I-77, N^3-(3-Chloro-4-methanesulfonyl-phenyl)-1H-[1,2,4]triazole-3,5-diamine], the EC50 was determined as 1.59 µM in test [1] and 20.4 µM in test [2].

Regarding `Nc1nc(Nc2ccc(C#Cc3ccccc3)c(Cl)c2)n[nH]1` [Compound I-14, N*3*-(3-Chloro-4-phenylethynyl-phenyl)-1H-[1,2,4]triazole-3,5-diamine], the values for the EC50 in test [1], in test [2] and in test [3] were 5.34 µM, 32.7 µM and 100 µM, respectively.

For the compound `N#Cc1ccc(Nc2n[nH]c(N)n2)cc1C1CC1` [Compound I-35, 4-(5-Amino-1H-1,2,4-triazol-3-ylamino)-2-cyclopropylbenzonitrile], the values for the EC50 in test [1], in test [2] and in test [3] were 0.34 µM, 1.73 µM and 62.8 µM, respectively.

In the case of `Nc1nc(Nc2cccc(S(=O)(=O)C(F)(F)F)c2)n[nH]1` [Compound I-4, N^3-(3-Trifluoromethanesulfonyl-phenyl)-1H-[1,2,4]triazole-3,5-diamine], the EC50 amounted to 0.412 µM in test [1], 0.823 µM in test [2] and 100 µM in test [3].

Turning to `N#Cc1c(Cl)cc(Nc2n[nH]c(N)n2)cc1C(F)(F)F` [Compound I-43, 4-(5-amino-1H-1,2,4-triazol-3-ylamino)-2-chloro-6-(trifluoromethyl)benzonitrile], the EC50 in test [1] amounted to 0.038 µM; in test [2] it was 0.146 µM; in test [3], 30.3 µM.

As to `CS(=O)(=O)c1ccc(Nc2n[nH]c(N)n2)cc1` [Compound I-20, N*3*-(4-Methanesulfonyl-phenyl)-1H-[1,2,4]triazole-3,5-diamine], the EC50 in test [1] was determined as 90.6 µM; in test [2], 100 µM; in test [3] it was 100 µM.

`CC(C)c1cccc(Nc2n[nH]c(N)n2)c1` [Compound I-56, N^3-(3-Isopropyl-phenyl)-1H-[1,2,4]triazole-3,5-diamine]: the values for the concentration for a half-maximal effect (EC50) in test [1], in test [2] and in test [3] were 8.36 µM, 19.6 µM and 100 µM, respectively.

Take `Nc1nc(Nc2cc(F)c(Br)c(S(F)(F)(F)(F)F)c2)n[nH]1` [Compound I-83, N*3*-(4-Bromo-3-fluoro-5-pentafluorosulfur-phenyl)-1H-[1,2,4]triazole-3,5-diamine]: the EC50 turned out to be 0.076 µM in test [1], 0.17 µM in test [2] and 32.5 µM in test [3].

With `Nc1nc(Nc2cc(Cl)cc(Cl)c2)n[nH]1` [Compound I-41, 3-Amino-5-(3,5-Dichloroanilino)-S-triazole], the EC50 is 0.138 µM in test [1] and 1.61 µM in test [2].

Turning to `Nc1nc(Nc2cc(Cl)c(Br)c(C(F)(F)F)c2)n[nH]1` [Compound I-42, N3-(4-bromo-3-chloro-5-(trifluoromethyl)phenyl)-1H-1,2,4-triazole-3,5-diamine], the values for the EC50 in test [1] and in test [2] were 0.081 µM and 0.404 µM, respectively.

Regarding `Nc1nc(Nc2ccc(Cl)c(C(F)(F)F)c2)n[nH]1` [Compound I-51, N^3-(4-Chloro-3-trifluoromethyl-phenyl)-1H-[1,2,4]triazole-3,5-diamine], the EC50 in test [1] worked out at 0.475 µM; in test [2], 3.44 µM; in test [3] it was 53.7 µM.

As for `CC(C)(C)c1cc(Nc2n[nH]c(N)n2)cc(C(C)(C)C)c1` [Compound I-19, N*3*-(3,5-Di-tert-butyl-phenyl)-1H-[1,2,4]triazole-3,5-diamine], the EC50 in test [1] is 44.7 µM; in test [2], 56.8 µM; in test [3] it was 87.8 µM.

Regarding `Nc1nc(Nc2cc(Cl)c(Cl)c(Cl)c2)n[nH]1` [Compound I-11, N*3*-(3,4,5-Trichloro-phenyl)-1H-[1,2,4]triazole-3,5-diamine], the figures for the EC50 in test [1], in test [2] and in test [3] were 0.166 µM, 4.68 µM and 100 µM, respectively.

`CC(C)(C)c1cccc(Nc2n[nH]c(N)n2)c1` [Compound I-6, N^3-(3-tert-Butyl-phenyl)-1H-[1,2,4]triazole-3,5-diamine]: the EC50 in test [1] came out at 0.948 µM; in test [2], 1.59 µM; in test [3] it was 100 µM.

`Nc1nc(Nc2ccc(S(=O)(=O)C(F)(F)F)c(Cl)c2)n[nH]1` [Compound I-7, N*3*-(3-Chloro-4-trifluoromethanesulfonyl-phenyl)-1H-[1,2,4]triazole-3,5-diamine]: the values for the EC50 in test [1], in test [2] and in test [3] were 1.28 µM, 0.91 µM and 100 µM, respectively.

With `Nc1nc(Nc2cc(F)cc(C(F)(F)F)c2)n[nH]1` [Compound I-57, N^3-(3-Fluoro-5-trifluoromethyl-phenyl)-1H-[1,2,4]triazole-3,5-diamine], the values for the EC50 in test [1], in test [2] and in test [3] were 0.146 µM, 0.624 µM and 100 µM, respectively.

With `Nc1nc(Nc2ccc(C(=O)N3CCOCC3)cc2)n[nH]1` [Compound I-23, [4-(5-Amino-1H-[1,2,4]triazol-3-ylamino)-phenyl]-morpholin-4-yl-methanone], the concentration for a half-maximal effect (EC50) in test [1], in test [2] and in test [3] was 100 µM throughout.

Consider `N#Cc1ccc(Nc2n[nH]c(N)n2)cc1Cl` [Compound I-12, 4-(5-Amino-1H-[1,2,4]triazol-3-ylamino)-2-chloro-benzonitrile], for which the EC50 in test [1] was determined as 0.335 µM; in test [2], 4.19 µM; in test [3], 100 µM.

Turning to `CS(=O)(=O)c1cccc(NC(=O)c2c(Cl)cc(Nc3n[nH]c(N)n3)cc2Cl)c1` [Compound I-66, 4-(5-Amino-1H-[1,2,4]triazol-3-ylamino)-2,6-dichloro-N-(3-methanesulfonyl-phenyl)-benzamide], the EC50 in test [2] is 4.99 µM; in test [3] it was 100 µM.

Regarding `Nc1nc(Nc2ccc(Br)c(Cl)c2)n[nH]1` [Compound I-40, N*3*-(4-Bromo-3-chloro-phenyl)-1H-[1,2,4]triazole-3,5-diamine], the EC50 came out at 3.29 µM in test [2] and 45.7 µM in test [3].

As for `CNC(=O)Nc1ccc(Nc2n[nH]c(N)n2)cc1Cl` [Compound I-62, 1-[4-(5-Amino-1H-[1,2,4]triazol-3-ylamino)-2-chloro-phenyl]-3-methyl-urea], the EC50 in test [2] and in test [3] was 100 µM each time.

Consider `COC(=O)c1c(Cl)cc(Nc2n[nH]c(N)n2)cc1Cl` [Compound I-63, 4-(5-Amino-1H-[1,2,4]triazol-3-ylamino)-2,6-dichloro-benzoic acid methyl ester], for which the EC50 worked out at 1.74 µM in test [2] and 100 µM in test [3].

Consider `N#Cc1ccc(Nc2n[nH]c(N)n2)cc1S(F)(F)(F)(F)F` [Compound I-85, 4-(5-Amino-1H-[1,2,4]triazol-3-ylamino)-2-pentafluorosulfur-benzonitrile], for which the results for the EC50 in test [2] and in test [3] were 0.287 µM and greater than 10 µM, respectively.

With `N#CCc1c(Cl)cc(Nc2n[nH]c(N)n2)cc1C(F)(F)F` [Compound I-84, 2-(4-(5-amino-1H-1,2,4-triazol-3-ylamino)-2-chloro-6-(trifluoromethyl)phenyl)acetonitrile], the values for the EC50 in test [2] and in test [3] were 0.628 µM and 42.1 µM, respectively.

On to `Nc1nc(Nc2cc(Br)cc(S(F)(F)(F)(F)F)c2)n[nH]1` [Compound I-82, N*3*-(3-Bromo-5-pentafluorosulfur-phenyl)-1H-[1,2,4]triazole-3,5-diamine], for which the EC50 in test [2] was determined as 0.918 µM; in test [3], 57.5 µM.

For `C=Cc1c(Cl)cc(Nc2n[nH]c(N)n2)cc1Cl` [Compound I-67, N^3-(3,5-Dichloro-4-vinyl-phenyl)-1H-[1,2,4]triazole-3,5-diamine], the EC50 in test [2] amounted to 0.685 µM; in test [3], 100 µM.

For `Nc1nc(Nc2cc(Cl)c(C(=O)Nc3ccccc3)c(Cl)c2)n[nH]1` [Compound I-64, 4-(5-Amino-1H-[1,2,4]triazol-3-ylamino)-2,6-dichloro-N-phenyl-benzamide], the results for the EC50 in test [2] and in test [3] were 4.09 µM and 8.6 µM, respectively.

Turning to `Nc1n[nH]c(Nc2cc(F)c(Br)c(F)c2)n1` [Compound I-46, N^5-(4-Bromo-3,5-difluoro-phenyl)-1H-[1,2,4]triazole-3,5-diamine], the EC50 stood at 1.18 µM in test [2] and 100 µM in test [3].

As for `Nc1nc(Nc2ccc(Br)c(S(F)(F)(F)(F)F)c2)n[nH]1` [Compound I-81, N*3*-(4-Bromo-3-pentafluorosulfur-phenyl)-1H-[1,2,4]triazole-3,5-diamine], the EC50 in test [2] worked out at 0.527 µM; in test [3], 34 µM.

On to `Nc1nc(Nc2cc(Cl)c(C(=O)N3CCCC3)c(Cl)c2)n[nH]1` [Compound I-65, [4-(5-Amino-1H-[1,2,4]triazol-3-ylamino)-2,6-dichloro-N-phenyl]-pyrrolidin-1-yl-methanone], for which the figures for the EC50 in test [2] and in test [3] were 3.67 µM and 100 µM, respectively.

The record behind these values is patent US20150307461A1, “ANTIVIRAL COMPOUNDS” (priority 2012, published 2015).
